From patent publication US20260097037A1, “FUSED RING COMPOUND HAVING GLP-1 RECEPTOR AGONIST EFFECT” (Shionogi & Co., Ltd., priority 2022, published 2026) come the findings set out here.

The target of this assay is T1, Human GLP-1 receptor stably expressing cells (hGLP-1R/CHO-K1 cells) (Homo sapiens, UniProt P43220).
T1 construct: expressed in transfected cells
Briefly: Measurement of GLP-1 receptor agonist activity (cAMP assay). In kind it is cell-based. The conditions noted are these: for Emax: CHO-K1, maximum effect, cAMP with 2 nM human GLP-1 (7-36) = 100%, DMSO only = 0%, read-out: Emax; for EC50: increase in cAMP concentration in hGLP-1R/CHO-K1 cells, 37° C. 1 hour. As for the experimental part: Test Example 1: Measurement of GLP-1 Receptor Agonist Activity
Human GLP-1 receptor stably expressing cells (hGLP-1R/CHO-K1 cells) are cultured in an a-MEM medium (Sigma) containing 10% FBS (Hyclone), 2% GlutaMAX (Gibco), 1% G418 (Nacalai Tesque), and 1% Penicillin-Streptomycin Mixed Solution (Sigma) at 37° C. under 5% CO2 conditions, and recovered by treating a 10 fold diluted 5.0 g/1-trypsin/5.3 mmol/1-EDTA solution (Nacalai Tesque) and cryopreserved.
A DMSO solution containing the compound of the present invention or human GLP-1 (7-36) (Phoenix Pharmaceuticals) is dispensed into a 384-well microplate (Greiner) at 62.5 nL/well, and in addition, 400 μM Forskolin (Nacalai Tesque) is dispensed therein at 7.5 nL/well. Subsequently, the frozen GLP-1 R/CHO-K1 cells are thawed in a thermostatic bath at 37° C., suspended in HBSS buffer (GIBCO) containing 0.1% BSA (Sigma), 20 mM HEPES, 0.1 mM IBMX (Sigma), and 0.2 mM RO20-1724 (Calbiochem) at 2×10^4 cells/mL, and the cell suspension is added at 6 μL/well. The solution was incubated at 37° C. for 1 hour and intracellular cAMP concentration is measured using cAMP Gs dynamic kit (Cisbio) according to the protocol attached to the product. Specifically, a cAMP-d2/Anti-cAMP-Cryptate (1/1) mixture solution is added in a total amount of 6 μL/well, and is incubated at room temperature for 1 hour, and then, time-resolved fluorescence is measured using PHERAstar (BMG Labtech).
Assuming that the cAMP concentration when human GLP-1 (7-36) is dispensed to a final concentration of 2 nM is 100% and the cAMP concentration when only DMSO is dispensed is 0%, the 50% effective concentration (EC50) and the maximum effect (Emax) of the compound of the present invention are calculated using an increase in the cAMP concentration as an index, using TIBCO Spotfire (TIBCO Software). The dilution concentration or the dilution solvent are changed as necessary.
The compounds of the present invention were tested essentially as described above.
Background: cAMP levels reflect the balance of adenylyl cyclase and phosphodiesterase activity.

T1 sequence (P43220 24-463): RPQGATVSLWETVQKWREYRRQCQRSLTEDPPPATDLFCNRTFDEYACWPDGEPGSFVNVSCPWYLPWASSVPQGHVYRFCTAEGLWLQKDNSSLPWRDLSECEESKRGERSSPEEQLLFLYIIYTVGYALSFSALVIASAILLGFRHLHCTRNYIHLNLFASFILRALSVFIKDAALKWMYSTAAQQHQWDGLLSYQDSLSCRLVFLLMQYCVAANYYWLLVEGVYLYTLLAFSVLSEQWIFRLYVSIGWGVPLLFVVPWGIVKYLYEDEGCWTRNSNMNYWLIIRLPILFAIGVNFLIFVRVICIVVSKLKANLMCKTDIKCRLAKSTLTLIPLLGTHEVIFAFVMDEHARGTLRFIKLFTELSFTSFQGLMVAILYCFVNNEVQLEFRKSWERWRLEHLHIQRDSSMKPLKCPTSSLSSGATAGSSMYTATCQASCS

Take `C[C@H]1c2nc(OCc3ccc(F)cc3)c(Cl)cc2CCN1Cc1nc2ccc(C(=O)O)c(F)c2n1C[C@@H]1CCO1` [Compound I-042]: the Emax (commonly the maximal effect, on the per cent scale that the assay sets) stood at 127% and the midpoint of the response, the EC50, lay at 0.208 nM.
The corresponding values for `C[C@H]1c2cc(OCc3c(F)cc(Cl)cc3F)c(Cl)cc2CCN1Cc1nc2ccc(C(=O)O)c(F)c2n1C[C@@H]1CCO1` [Compound I-043] are 118% and 0.0647 nM.
Taken in the same sequence, the figures for `C[C@H]1c2cc(OCc3c(F)cc(F)cc3F)c(Cl)cc2CCN1Cc1nc2ccc(C(=O)O)c(F)c2n1C[C@@H]1CCO1` [Compound I-044] were 126% and 0.109 nM.
Consider `C[C@H]1c2nc(OCc3ccc(Cl)cc3F)c(Cl)cc2CCN1Cc1nc2ccc(C(=O)O)c(F)c2n1C[C@@H]1CCO1` [Compound I-045], for which the Emax turned out to be 131% and the midpoint of the response, the EC50, lay at 0.0345 nM.
Taken in the same sequence, the figures for `C[C@H]1c2c(cc(C(F)(F)F)c3c2O[C@](C)(c2ccc(Cl)cc2F)O3)CCN1Cc1nc2ccc(C(=O)O)cc2n1C[C@@H]1CCO1` [Compound I-046] were 112% and 669 nM.
As to `C[C@H]1c2c(cc(C(F)(F)F)c3c2O[C@@](C)(c2ccc(Cl)cc2F)O3)CCN1Cc1nc2ccc(C(=O)O)cc2n1C[C@@H]1CCO1` [Compound I-047], the maximal effect (Emax) came to 146% and the concentration for a half-maximal effect (EC50) (in general, the midpoint of the concentration-response curve) was found to be 0.903 nM.
The corresponding values for `C[C@H]1c2nc(OCc3ncc(Cl)s3)c(C(F)(F)F)cc2CCN1Cc1nc2ccc(C(=O)O)cc2n1C[C@@H]1CCO1` [Compound I-048] are 93.7% and 3.31 nM.
As for `C[C@H]1c2nc(OCc3ccc(Cl)cc3F)c(C(F)(F)F)cc2CCN1Cc1nc2sc(C(=O)O)cc2n1C[C@@H]1CCO1` [Compound I-049], the Emax came out at 112% and the midpoint of the response, the EC50, lay at 0.307 nM.
Taken in the same sequence, the figures for `C[C@H]1c2nc(OCc3nc4ccccc4s3)c(C(F)(F)F)cc2CCN1Cc1nc2ccc(C(=O)O)cc2n1C[C@@H]1CCO1` [Compound I-050] were 97% and 0.638 nM.
The corresponding values for `C[C@H]1c2nc(OCc3ccc(F)cc3)c(C(F)F)cc2CCN1Cc1nc2ccc(C(=O)O)cc2n1C[C@@H]1CCO1` [Compound I-051] are 118% and 1.02 nM.
The corresponding values for `C[C@H]1c2nc(OCc3ccc(Cl)cc3)c(C(F)F)cc2CCN1Cc1nc2ccc(C(=O)O)cc2n1C[C@@H]1CCO1` [Compound I-052] are 115% and 0.252 nM.
For the compound `Cc1ccc(COc2nc3c(cc2C(F)F)CCN(Cc2nc4ccc(C(=O)O)cc4n2C[C@@H]2CCO2)[C@H]3C)cc1` [Compound I-053], the Emax stood at 123% and a half-maximal effect (EC50) was put at 0.417 nM.
Regarding `COc1cc(Cl)ccc1COc1nc2c(cc1C(F)F)CCN(Cc1nc3ccc(C(=O)O)cc3n1C[C@@H]1CCO1)[C@H]2C` [Compound I-054], the Emax worked out at 121% and the EC50 was 0.0963 nM.
In the case of `C[C@H]1c2nc(OCc3ccccc3Cl)c(C(F)F)cc2CCN1Cc1nc2ccc(C(=O)O)cc2n1C[C@@H]1CCO1` [Compound I-055], the Emax was determined as 97% and the EC50 was 0.902 nM.
Taken in the same sequence, the figures for `C[C@H]1c2nc(OCc3ccc(F)cc3F)c(C(F)F)cc2CCN1Cc1nc2ccc(C(=O)O)cc2n1C[C@@H]1CCO1` [Compound I-056] were 108% and 0.354 nM.
For `C[C@H]1c2nc(OCc3ccc(Cl)cc3Cl)c(C(F)F)cc2CCN1Cc1nc2ccc(C(=O)O)cc2n1C[C@@H]1CCO1` [Compound I-057], the maximal response (Emax) came out at 86.7% and the 50% effective concentration (EC50) turned out to be 0.315 nM.
Taken in the same sequence, the figures for `C[C@H]1c2nc(OCc3ccc(Cl)cn3)c(C(F)F)cc2CCN1Cc1nc2ccc(C(=O)O)cc2n1C[C@@H]1CCO1` [Compound I-058] were 92.7% and 0.924 nM.
Taken in the same sequence, the figures for `C[C@H]1c2nc(OCc3ccc(OC(F)F)cc3F)c(C(F)F)cc2CCN1Cc1nc2ccc(C(=O)O)cc2n1C[C@@H]1CCO1` [Compound I-059] were 104% and 1.28 nM.
